The values below come from ChEMBL document CHEMBL6121044, “Discovery of Novel Spirocyclic MAT2A Inhibitors Demonstrating High In Vivo Efficacy in MTAP-Null Xenograft Models” (J Med Chem, 2025).

Data set [1] has as its target S-adenosylmethionine synthase isoform type-2 (Homo sapiens, UniProt P31153). Put plainly: Inhibition of MAT2A (unknown origin) assessed as release of inorganic phosphate using ATP/L-methionine pre-incubated for 30 mins followed by substrate addition measured after 2.5 hrs by colorimetric assay.
Data set [2] deals with HCT-116. Kind of data set: Antiproliferative activity against MTAP-knock out human HCT-116 cells assessed as proliferation inhibition rate measured after 5 days by CTG assay. The settings on record: HCT-116, 120 h. The format is functional, cell-based.
The test system of data set [3] is HCT-116. Put plainly: Antiproliferative activity against MTAP-knock out human HCT-116 cells assessed as maximal inhibition rate at 10 uM measured after 5 days by CTG assay relative to control. The format is functional. The settings on record: time 5 day.
Data set [4] in a line: Microsomal metabolic stability in human liver microsomes assessed as clearance. The format is ADME, Microsome. Particulars: read-out: CLH. A general note: Liver microsomes are vesicles of endoplasmic reticulum, rich in cytochrome P450 enzymes.
Data set [5] can be described thus: Microsomal metabolic stability in mouse liver microsomes assessed as clearance. The class given is ADME, Microsome. The settings on record: read-out: CLH.
The nature of data set [6]: Clearance in male ICR mouse at 10 mg/kg, po and 2 mg/kg, iv measured upto 24 hrs. The settings on record: in vivo. The class given is ADME, organism-based.
Data set [7] in a line: Volume of distribution at steady state in male ICR mouse at 10 mg/kg, po and 2 mg/kg, iv measured upto 24 hrs. The format is ADME, organism-based. Particulars: in vivo.
A short description of data set [8]: Half life in male ICR mouse at 10 mg/kg, po and 2 mg/kg, iv measured upto 24 hrs. The format is ADME, organism-based. The settings on record: in vivo.
The nature of data set [9]: AUC (0 to infinity) in male ICR mouse at 10 mg/kg, po and 2 mg/kg, iv measured upto 24 hrs. The format is ADME, organism-based. The settings on record: in vivo.
The nature of data set [10]: Lipophilicity, log D of compound at pH 7.4 byHPLC method. The format is physicochemical. The settings on record: buffer.
In data set [11] the test system is HCT-116. Put plainly: Anti-tumor activity against human HCT-116 MATP(-/-) cells xenografted in mouse model assessed as tumor growth inhibition at 200 mg/kg QD relative to control. The class given is functional. Particulars: read-out: TGI. (In general: In xenograft studies the graft and the host belong to different species.)
Data set [12] has as its system HCT-116. Kind of data set: Anti-tumor activity against human HCT-116 MATP(-/-) cells xenografted in mouse model assessed as tumor growth inhibition at 30 mg/kg QD relative to control. Particulars: read-out: TGI. The format is functional.

Some results are limits rather than exact numbers.

Broadly, the IC50 is the midpoint of a concentration-inhibition curve. Broadly, the half-life is how long it takes for the measured level to halve. Read a low half-life as rapid decline. Broadly, the AUC(0-inf) is the area under the concentration-time curve extrapolated to infinity. Read a low AUC(0-inf) as less exposure. For orientation: logD means lipophilicity at a set pH, counting ionised and neutral species. A higher logD goes with higher lipophilicity.

Chain of S-adenosylmethionine synthase isoform type-2 (P31153 whole entry, canonical isoform): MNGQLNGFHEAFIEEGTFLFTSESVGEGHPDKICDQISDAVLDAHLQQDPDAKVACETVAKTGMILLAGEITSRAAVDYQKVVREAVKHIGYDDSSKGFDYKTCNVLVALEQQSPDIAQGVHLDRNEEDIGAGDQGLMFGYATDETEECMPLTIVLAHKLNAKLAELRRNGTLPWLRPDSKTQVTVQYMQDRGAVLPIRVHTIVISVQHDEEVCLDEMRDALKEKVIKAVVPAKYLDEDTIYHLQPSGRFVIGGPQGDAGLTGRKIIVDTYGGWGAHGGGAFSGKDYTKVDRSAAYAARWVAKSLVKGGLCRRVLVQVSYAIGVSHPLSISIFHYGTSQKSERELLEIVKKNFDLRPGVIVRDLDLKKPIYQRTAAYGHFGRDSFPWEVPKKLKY

For `[2H]C([2H])([2H])NC1=NC(=O)[C@]2(CCc3ncccc32)c2cc(C(C)(F)F)c(F)cc21`, the IC50 in data set [1] stood at 4 nM; in data set [2] it was 70 nM. For the same compound, in [3], the Imax turned out to be 85.98%. Further, the CLint scaled in [4] is < 9.3 mL/min/kg; in data set [5], < 29.3 mL/min/kg. The clearance in [6] came out at 11.2 mL/min/kg. The Vdss in data set [7] is 1.15 L/kg. Also, the half-life in [8] came to 1.58 h. Besides, the AUC(0-inf) in data set [9] turned out to be 14200 ng·h/mL. Moreover, in data set [10], the logD was 1.87.

For the compound `[2H]C([2H])([2H])NC1=NC(=O)[C@]2(CCc3ncccc32)c2cc(C3CC3)c(F)cc21`, the IC50 in data set [1] was 4 nM; in data set [2], 49 nM. The Imax in data set [3] is listed as 77%. Moreover, the CLint scaled in data set [4] is < 9.3 mL/min/kg; in [5], 38.9 mL/min/kg. The clearance in data set [6] came out at 11.4 mL/min/kg. In addition, the Vdss in data set [7] came to 1.02 L/kg. In data set [8], this compound showed a half-life of 2.1 h. The same compound returned an AUC(0-inf) in [9] of 12300 ng·h/mL. Further, the logD in data set [10] turned out to be 2.2.

For the compound `NC1=NC(=O)C2(CCc3ncccc32)c2cc(C(F)(F)F)ccc21` (racemic), the values for the IC50 in [1] and in data set [2] were 4 nM and 100 nM, respectively. The Imax in data set [3] was found to be 75.59%. Moreover, the CLint scaled in data set [4] and in [5] was < 9.6 mL/min/kg each time. This compound gave a clearance in [6] of 8.48 mL/min/kg. The same compound showed a Vdss in data set [7] of 1.68 L/kg. Also, in data set [8], the half-life was 1.92 h. The same compound had an AUC(0-inf) in data set [9] of 20400 ng·h/mL. The same compound registered a logD in [10] of 1.76.

`COc1ccc(-c2c(Nc3ccccn3)[nH]c3c(C4=CCCCC4)c(-c4ccccc4)nn3c2=O)cc1`: in data set [11], the inhibition in vivo at 200 mg/kg is 52%. Besides, the IC50 in [2] was determined as 492 nM. Further, the Imax in [3] came to 100%. Also, the CLint scaled in data set [4] was < 9.3 mL/min/kg; in [5], 40.3 mL/min/kg.

Take `Cn1cnc2c(=O)n(-c3cccnc3C3CC3)c3cc(Cl)ccc3c21`: in data set [12], the inhibition in vivo at 30 mg/kg was 82.9%.
